Measured values reported in the supplement of paper PMC10307832.

Key:
Assay in all cases: relative viability (nuclei count vs DMSO), 5 days (fraction); higher = more cells survive
BEN = tested on: BEN
Outline: (§1)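 Relative viability divides the nuclei count in treated wells by that in vehicle wells. Lung cancer cell lines were seeded in 1536-well plates, dosed by pin tool the next day, and fixed and stained after 5 days in one step with final 0.05% Triton X-100, 1% formaldehyde and 1 ug/ml Hoechst. Dosing was a single drug or a fixed anchor-drug dose plus five library-drug doses (not always all listed) in √10 steps, and values are medians of duplicate plates imaged at 4×.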

COR-L 105 = tested on: COR-L 105
Outline: as §1

EKVX = tested on: EKVX
Outline: as §1

EMC-BAC-2 = tested on: EMC-BAC-2
Outline: as §1

EPLC-272H = tested on: EPLC-272H
Outline: as §1

HCC-78 = tested on: HCC-78
Outline: as §1

HCC-827 = tested on: HCC-827
Outline: as §1

LK-2 = tested on: LK-2
Outline: as §1

LOU-NH91 = tested on: LOU-NH91
Outline: as §1

LU99A = tested on: LU99A
Outline: as §1

NCI-H1437 = tested on: NCI-H1437
Outline: as §1

NCI-H1648 = tested on: NCI-H1648
Outline: as §1

NCI-H1650 = tested on: NCI-H1650
Outline: as §1

NCI-H1734 = tested on: NCI-H1734
Outline: as §1

NCI-H1792 = tested on: NCI-H1792
Outline: as §1

NCI-H2023 = tested on: NCI-H2023
Outline: as §1

NCI-H2085 = tested on: NCI-H2085
Outline: as §1

NCI-H358 = tested on: NCI-H358
Outline: as §1

NCI-H522 = tested on: NCI-H522
Outline: as §1

NCI-H647 = tested on: NCI-H647
Outline: as §1

NCI-H650 = tested on: NCI-H650
Outline: as §1

SK-LU-1 = tested on: SK-LU-1
Outline: as §1

SW 900 = tested on: SW 900
Outline: as §1

UMC-11 = tested on: UMC-11
Outline: as §1

## Oc1nc(-c2ccc(C(F)(F)F)cc2)nc2c1CSCC2 [XAV939] + CC(=O)c1c(C)c2cnc(Nc3ccc(N4CCNCC4)cn3)nc2n(C2CCCC2)c1=O [Palbociclib] (partner 0.5 µM)
BEN; first compound 0.08 µM
  relative viability: 0.508
BEN; first compound 0.253 µM
  relative viability: 0.438
BEN; first compound 0.8 µM
  relative viability: 0.485
BEN; first compound 2.53 µM
  relative viability: 0.45
COR-L 105; first compound 0.08 µM
  relative viability: 0.403
COR-L 105; first compound 0.253 µM
  relative viability: 0.399
COR-L 105; first compound 0.8 µM
  relative viability: 0.43
COR-L 105; first compound 2.53 µM
  relative viability: 0.397
EKVX; first compound 0.08 µM
  relative viability: 0.383
EKVX; first compound 0.253 µM
  relative viability: 0.343
EKVX; first compound 0.8 µM
  relative viability: 0.34
EKVX; first compound 2.53 µM
  relative viability: 0.227
EMC-BAC-2; first compound 0.08 µM
  relative viability: 0.555
EMC-BAC-2; first compound 0.253 µM
  relative viability: 0.491
EMC-BAC-2; first compound 0.8 µM
  relative viability: 0.478
EMC-BAC-2; first compound 2.53 µM
  relative viability: 0.338
EPLC-272H; first compound 0.08 µM
  relative viability: 0.342
EPLC-272H; first compound 0.253 µM
  relative viability: 0.251
EPLC-272H; first compound 0.8 µM
  relative viability: 0.305
EPLC-272H; first compound 2.53 µM
  relative viability: 0.332
HCC-78; first compound 0.08 µM
  relative viability: 0.479
HCC-78; first compound 0.253 µM
  relative viability: 0.382
HCC-78; first compound 0.8 µM
  relative viability: 0.466
HCC-78; first compound 2.53 µM
  relative viability: 0.527
HCC-827; first compound 0.08 µM
  relative viability: 0.571
HCC-827; first compound 0.253 µM
  relative viability: 0.459
HCC-827; first compound 0.8 µM
  relative viability: 0.584
HCC-827; first compound 2.53 µM
  relative viability: 0.517
LK-2; first compound 0.08 µM
  relative viability: 0.526
LK-2; first compound 0.253 µM
  relative viability: 0.626
LK-2; first compound 0.8 µM
  relative viability: 0.609
LK-2; first compound 2.53 µM
  relative viability: 0.545
LOU-NH91; first compound 0.08 µM
  relative viability: 0.609
LOU-NH91; first compound 0.253 µM
  relative viability: 0.54
LOU-NH91; first compound 0.8 µM
  relative viability: 0.54
LOU-NH91; first compound 2.53 µM
  relative viability: 0.419
LU99A; first compound 0.08 µM
  relative viability: 0.477
LU99A; first compound 0.253 µM
  relative viability: 0.406
LU99A; first compound 0.8 µM
  relative viability: 0.433
LU99A; first compound 2.53 µM
  relative viability: 0.424
NCI-H1437; first compound 0.08 µM
  relative viability: 0.32
NCI-H1437; first compound 0.253 µM
  relative viability: 0.297
NCI-H1437; first compound 0.8 µM
  relative viability: 0.301
NCI-H1437; first compound 2.53 µM
  relative viability: 0.194
NCI-H1648; first compound 0.253 µM
  relative viability: 0.28
NCI-H1648; first compound 0.8 µM
  relative viability: 0.27
NCI-H1648; first compound 2.53 µM
  relative viability: 0.216
NCI-H1650; first compound 0.08 µM
  relative viability: 0.268
NCI-H1650; first compound 0.253 µM
  relative viability: 0.297
NCI-H1650; first compound 0.8 µM
  relative viability: 0.299
NCI-H1650; first compound 2.53 µM
  relative viability: 0.234
NCI-H1734; first compound 0.08 µM
  relative viability: 0.346
NCI-H1734; first compound 0.253 µM
  relative viability: 0.3
NCI-H1734; first compound 0.8 µM
  relative viability: 0.321
NCI-H1734; first compound 2.53 µM
  relative viability: 0.357
NCI-H1792; first compound 0.08 µM
  relative viability: 0.777
NCI-H1792; first compound 0.253 µM
  relative viability: 0.425
NCI-H1792; first compound 0.8 µM
  relative viability: 0.675
NCI-H1792; first compound 2.53 µM
  relative viability: 0.558
NCI-H2023; first compound 0.08 µM
  relative viability: 0.405
NCI-H2023; first compound 0.253 µM
  relative viability: 0.291
NCI-H2023; first compound 0.8 µM
  relative viability: 0.328
NCI-H2023; first compound 2.53 µM
  relative viability: 0.295
NCI-H2085; first compound 0.08 µM
  relative viability: 0.489
NCI-H2085; first compound 0.253 µM
  relative viability: 0.435
NCI-H2085; first compound 0.8 µM
  relative viability: 0.491
NCI-H2085; first compound 2.53 µM
  relative viability: 0.451
NCI-H358; first compound 0.08 µM
  relative viability: 0.149
NCI-H358; first compound 0.253 µM
  relative viability: 0.109
NCI-H358; first compound 0.8 µM
  relative viability: 0.154
NCI-H358; first compound 2.53 µM
  relative viability: 0.166
NCI-H522; first compound 0.08 µM
  relative viability: 1.05
NCI-H522; first compound 0.253 µM
  relative viability: 0.884
NCI-H522; first compound 0.8 µM
  relative viability: 0.973
NCI-H522; first compound 2.53 µM
  relative viability: 1.03
NCI-H647; first compound 0.08 µM
  relative viability: 0.406
NCI-H647; first compound 0.253 µM
  relative viability: 0.298
NCI-H647; first compound 0.8 µM
  relative viability: 0.277
NCI-H647; first compound 2.53 µM
  relative viability: 0.293
NCI-H650; first compound 0.08 µM
  relative viability: 0.376
NCI-H650; first compound 0.253 µM
  relative viability: 0.35
NCI-H650; first compound 0.8 µM
  relative viability: 0.333
NCI-H650; first compound 2.53 µM
  relative viability: 0.303
SK-LU-1; first compound 0.08 µM
  relative viability: 0.387
SK-LU-1; first compound 0.253 µM
  relative viability: 0.335
SK-LU-1; first compound 0.8 µM
  relative viability: 0.396
SK-LU-1; first compound 2.53 µM
  relative viability: 0.394
SW 900; first compound 0.253 µM
  relative viability: 0.539
SW 900; first compound 0.8 µM
  relative viability: 0.56
SW 900; first compound 2.53 µM
  relative viability: 0.285
UMC-11; first compound 0.08 µM
  relative viability: 0.326
UMC-11; first compound 0.253 µM
  relative viability: 0.287
UMC-11; first compound 0.8 µM
  relative viability: 0.355
UMC-11; first compound 2.53 µM
  relative viability: 0.232
